A word on the EC50: it is the concentration that produces a half-maximal response. High values mean a less potent agent, low ones a more potent agent.

The experiment deals with Aβ42. In words: In vitro cell screening assay in H4 cells expressing human APP751: Aβ42 by sandwich ELISA. The format is cell-based. To be noted: compounds 0.003-10 μM, incubated overnight (16-18 h), sandwich ELISA of supernatant. An outline of the steps: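 H4 neuroglioma cells stably expressing wild-type human APP751, switched to Pro293 medium and treated with compounds (0.003-10 μM, 0.33% DMSO) for 16-18 h at 37 °C. Supernatant Aβ42 quantified by sandwich ELISA (C-terminal capture, 4G8-HRP detection, A450); EC50 by sigmoidal fit normalized to DMSO and DAPT controls.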

SMILES strings stand for the structures. Bounds are passed on as bounds.

`COc1nc(C2=NOC[C@H](c3cc4ccc(C)cc4o3)N2)ccc1-n1cnc(C)c1` [Example 22, (R)-3-(6-Methoxy-5-(4-methyl-1H-imidazol-1-yl)pyridin-2-yl)-5-(6-methylbenzofuran-2-yl)-5,6-dihydro-4H-1,2,4-oxadiazine] had an EC50 (Homo sapiens) of 18.4 nM.

As to `COc1nc(C2=NOCC(c3cn(C)c4ccc(Cl)c(F)c34)N2)ccc1-n1cnc(C)c1` (single isomer, unassigned; (+)) [Example 237A, (+)-5-(5-chloro-4-fluoro-1-methyl-1H-indol-3-yl)-3-(6-methoxy-5-(4-methyl-1H-imidazol-1-yl)pyridin-2-yl)-5,6-dihydro-4H-1,2,4-oxadiazine], the EC50 was 5 nM.

Compound `COc1nc(C2=NOCC(c3cn(C)c4ccc(F)c(F)c34)N2)ccc1-n1cnc(C)c1` (single isomer, unassigned; (-)) [Example 220A, (−)-5-(4,5-difluoro-1-methyl-1H-indol-3-yl)-3-(6-methoxy-5-(4-methyl-1H-imidazol-1-yl)pyridin-2-yl)-5,6-dihydro-4H-1,2,4-oxadiazine] displayed an EC50 of 102 nM.

Consider `COc1nc(C2=NOCC(c3sc4ccccc4c3C)N2)ccc1-n1cnc(C)c1` (single isomer, unassigned; (-)) [Example 66A, (−)-3-(6-methoxy-5-(4-methyl-1H-imidazol-1-yl)pyridin-2-yl)-5-(3-methylbenzo [b]thiophen-2-yl)-5,6-dihydro-4H-1,2,4-oxadiazine], for which the concentration for a half-maximal effect (EC50) was 651 nM.

The compound `COc1nc(C2=NOCC(c3ccc(F)c(C(F)(F)F)c3)N2)ccc1-n1cnc(C)c1` (single isomer, unassigned) [Example 44B, 5-(4-fluoro-3-(trifluoromethyl)phenyl)-3-(6-methoxy-5-(4-methyl-1H-imidazol-1-yl)pyridin-2-yl)-5,6-dihydro-4H-1,2,4-oxadiazine] came in with a 50% effective concentration (EC50) of 21.6 nM.

On to `COc1nc(C2=NOC[C@H](c3cc4ccccc4s3)N2)ccc1-n1cnc(C)c1` [Example 13, (R)-5-(Benzo[b]thiophen-2-yl)-3-(6-methoxy-5-(4-methyl-1H-imidazol-1-yl)pyridin-2-yl)-5,6-dihydro-4H-1,2,4-oxadiazine], for which the response (Homo sapiens) was half-maximal at 7.8 nM (EC50). This lies in the single-digit nanomolar range.

Consider `COc1nc(C2=NOCC(c3cn(C)c4ncc(C(F)(F)F)cc34)N2)ccc1-n1cnc(C)c1` (single isomer, unassigned; (+)) [Example 206B, (+)-3-(6-methoxy-5-(4-methyl-1H-imidazol-1-yl)pyridin-2-yl)-5-(1-methyl-5-(trifluoromethyl)-1H-pyrrolo [2,3-b]pyridin-3-yl)-5,6-dihydro-4H-1,2,4-oxadiazine], for which the EC50 was determined as 5 nM.

`COc1nc(C2=NOCC(c3cn(C)c4cccc(OC)c34)N2)ccc1-n1cnc(C)c1` (single isomer, unassigned; (+)) [Example 252B, (+)-5-(4-methoxy-1-methyl-1H-indol-3-yl)-3-(6-methoxy-5-(4-methyl-1H-imidazol-1-yl)pyridin-2-yl)-5,6-dihydro-4H-1,2,4-oxadiazine] had a half-maximal effective concentration (EC50) of 36.3 nM.

`COc1nc(C2=NOCC(C3CCC3)N2)ccc1-n1cnc(C)c1` (single isomer, unassigned; (+)) [Example 163A, (+)-5-cyclobutyl-3-(6-methoxy-5-(4-methyl-1H-imidazol-1-yl)pyridin-2-yl)-5,6-dihydro-4H-1,2,4-oxadiazine]: the 50% effective concentration (EC50) is greater than 3000 nM.

`COc1nc(C2=NOCC(C3CCC3)N2)ccc1-n1cnc(C)c1` (single isomer, unassigned; (-)) [Example 163B, (−)-5-cyclobutyl-3-(6-methoxy-5-(4-methyl-1H-imidazol-1-yl)pyridin-2-yl)-5,6-dihydro-4H-1,2,4-oxadiazine] had an EC50 of 368 nM.

`COc1nc(C2=NOCC(c3cn(C)c4cccc(Cl)c34)N2)ccc1-n1cnc(C)c1` (single isomer, unassigned; (-)) [Example 229B, (−)-5-(4-chloro-1-methyl-1H-indol-3-yl)-3-(6-methoxy-5-(4-methyl-1H-imidazol-1-yl)pyridin-2-yl)-5,6-dihydro-4H-1,2,4-oxadiazine] returned an EC50 of 24.4 nM.

On to `COc1nc(C2=NOCC(c3cc4ccccc4o3)N2)ccc1-n1cnc(C)n1` (single isomer, unassigned; (+)) [Example 31B, (+)-5-(Benzofuran-2-yl)-3-(6-methoxy-5-(3-methyl-1H-1,2,4-triazol-1-yl)pyridin-2-yl)-5,6-dihydro-4H-1,2,4-oxadiazine], for which the EC50 is 636 nM.

As to `COc1nc(C2=NOCC(c3oc4ccc(F)cc4c3C)N2)ccc1-n1cnc(C)c1` (single isomer, unassigned; (-)) [Example 101A, (−)-5-(5-fluoro-3-methylbenzofuran-2-yl)-3-(6-methoxy-5-(4-methyl-1H-imidazol-1-yl)pyridin-2-yl)-5,6-dihydro-4H-1,2,4-oxadiazine], it took 1570 nM to reach a half-maximal effect (EC50). This EC50 lies about 2.5-fold higher than the previous one.

In turn, `COc1nc(C2=NOCC(c3cn(C)c4cc(Cl)ccc34)N2)ccc1-n1cnc(C)c1` (single isomer, unassigned; (+)) [Example 194A, (+)-5-(6-chloro-1-methyl-1H-indol-3-yl)-3-(6-methoxy-5-(4-methyl-1H-imidazol-1-yl)pyridin-2-yl)-5,6-dihydro-4H-1,2,4-oxadiazine] registered a half-maximal effective concentration (EC50) of 7.7 nM.

For the compound `COc1nc(C2=NOCC(c3ccc4ncccc4c3)N2)ccc1-n1cnc(C)c1` (single isomer, unassigned; (-)) [Example 224A, (−)-3-(6-methoxy-5-(4-methyl-1H-imidazol-1-yl)pyridin-2-yl)-5-(quinolin-6-yl)-5,6-dihydro-4H-1,2,4-oxadiazine], the EC50 is greater than 3000 nM.

As for `COc1nc(C2=NOCC(c3ccc(Cl)c(C(F)(F)F)c3)N2)ccc1-n1cnc(C)c1` (single isomer, unassigned) [Example 253A, 5-(4-chloro-3-(trifluoromethyl)phenyl)-3-(6-methoxy-5-(4-methyl-1H-imidazol-1-yl)pyridin-2-yl)-5,6-dihydro-4H-1,2,4-oxadiazine], the midpoint of the response, the EC50, lay at 654 nM. This counts as sub-micromolar.

The compound `COc1nc(C2=NOCC(c3cn(C)c4cc(S(C)(=O)=O)ccc34)N2)ccc1-n1cnc(C)c1` (single isomer, unassigned; (+)) [Example 256B, (+)-3-(6-methoxy-5-(4-methyl-1H-imidazol-1-yl)pyridin-2-yl)-5-(1-methyl-6-(methylsulfonyl)-1H-indol-3-yl)-5,6-dihydro-4H-1,2,4-oxadiazine] had an EC50 of 422 nM. This EC50 lies about 1.5-fold lower than the previous one.

Regarding `COc1nc(C2=NOCC(c3cn(C)c4ncccc34)N2)ccc1-n1cnc(C)c1` (single isomer, unassigned; (-)) [Example 195A, (−)-3-(6-methoxy-5-(4-methyl-1H-imidazol-1-yl)pyridin-2-yl)-5-(1-methyl-1H-pyrrolo [2,3-b]pyridin-3-yl)-5,6-dihydro-4H-1,2,4-oxadiazine], the midpoint of the response, the EC50, lay at 2110 nM. This EC50 is about 5-fold higher than that of the compound before.

With `COc1nc(C2=NOCC(c3ccc(Cl)c(Cl)c3)N2)ccc1-n1cnc(C)c1` (single isomer, unassigned; (-)) [Example 49A, (−)-5-(3,4-dichlorophenyl)-3-(6-methoxy-5-(4-methyl-1H-imidazol-1-yl)pyridin-2-yl)-5,6-dihydro-4H-1,2,4-oxadiazine], the EC50 is greater than 3000 nM.

Regarding `COc1nc(C2=NOCC(c3cnn(C)c3)N2)ccc1-n1cnc(C)c1` (single isomer, unassigned; (-)) [Example 166A, (−)-3-(6-methoxy-5-(4-methyl-1H-imidazol-1-yl)pyridin-2-yl)-5-(1-methyl-1H-pyrazol-4-yl)-5,6-dihydro-4H-1,2,4-oxadiazine], the 50% effective concentration (EC50) (Homo sapiens) is greater than 3000 nM.

The compound `COc1nc(C2=NOCC(c3cc4c(Cl)cccc4o3)N2)ccc1-n1cnc(C)c1` (single isomer, unassigned; (+)) [Example 96B, (+)-5-(4-chlorobenzofuran-2-yl)-3-(6-methoxy-5-(4-methyl-1H-imidazol-1-yl)pyridin-2-yl)-5,6-dihydro-4H-1,2,4-oxadiazine] registered a concentration giving a half-maximal response (EC50) of 12.7 nM.

The compound `COc1nc(C2=NOCC(c3cscn3)N2)ccc1-n1cnc(C)c1` (single isomer, unassigned; (+)) [Example 156A, (+)-3-(6-methoxy-5-(4-methyl-1H-imidazol-1-yl)pyridin-2-yl)-5-(thiazol-4-yl)-5,6-dihydro-4H-1,2,4-oxadiazine] gave an EC50 (Homo sapiens) of 1730 nM. This lies in the single-digit micromolar range.

Regarding `COc1ccc(C2CON=C(c3ccc(-n4cnc(C)c4)c(OC)n3)N2)cc1` (single isomer, unassigned; (-)) [Example 54A, (−)-3-(6-methoxy-5-(4-methyl-1H-imidazol-1-yl)pyridin-2-yl)-5-(4-methoxyphenyl)-5,6-dihydro-4H-1,2,4-oxadiazine], the EC50 is greater than 3000 nM.

Regarding `COc1nc(C2=NOCC(c3nc4ccccc4s3)N2)ccc1-n1cnc(C)c1` (single isomer, unassigned; (+)) [Example 208B, (+)-5-(benzo [d]thiazol-2-yl)-3-(6-methoxy-5-(4-methyl-1H-imidazol-1-yl)pyridin-2-yl)-5,6-dihydro-4H-1,2,4-oxadiazine], the response was half-maximal at 74 nM (EC50).

On to `COc1nc(C2=NOCC(c3ccc(Cl)c(C)c3)N2)ccc1-n1cnc(C)c1` (single isomer, unassigned; (-)) [Example 86A, (−)-5-(4-chloro-3-methylphenyl)-3-(6-methoxy-5-(4-methyl-1H-imidazol-1-yl)pyridin-2-yl)-5,6-dihydro-4H-1,2,4-oxadiazine], for which the half-maximal effective concentration (EC50) came out at 1550 nM.

In the case of `COc1nc(C2=NOCC(c3nn(C)c4ccccc34)N2)ccc1-n1cnc(C)c1` (single isomer, unassigned; (-)) [Example 124A, (−)-3-(6-methoxy-5-(4-methyl-1H-imidazol-1-yl)pyridin-2-yl)-5-(1-methyl-1H-indazol-3-yl)-5,6-dihydro-4H-1,2,4-oxadiazine], the EC50 amounted to 1060 nM.

Regarding `COc1nc(C2=NOCC(c3cnc4ccc(Cl)cn34)N2)ccc1-n1cnc(C)c1` (single isomer, unassigned; (-)) [Example 269A, (−)-5-(6-chloroimidazo[1,2-a]pyridin-3-yl)-3-(6-methoxy-5-(4-methyl-1H-imidazol-1-yl)pyridin-2-yl)-5,6-dihydro-4H-1,2,4-oxadiazine], the EC50 is greater than 3000 nM.

Source of the values: US9802927B2, “Oxadiazine compounds and methods of use thereof” (Denali Therapeutics, Inc., priority 2015, dated 2017).
